Reference: patent US20170202932A1, “METHODS FOR INHIBITING NEURON APOPTOSIS AND NECROSIS” (NEWSOUTH INNOVATIONS PTY LIMITED, priority 2012, published 2017)

Target: T1, Purkinje cell TRPC3 channels (Mus musculus, UniProt Q9QZC1, DEL811-838)
T1 construct: from tissue; host or cells: parasagittal cerebellar brain slices, C129-SvEv mice, Purkinje neurons
T1 sequence (Q9QZC1 with tags, fused parts or gaps DEL811-838): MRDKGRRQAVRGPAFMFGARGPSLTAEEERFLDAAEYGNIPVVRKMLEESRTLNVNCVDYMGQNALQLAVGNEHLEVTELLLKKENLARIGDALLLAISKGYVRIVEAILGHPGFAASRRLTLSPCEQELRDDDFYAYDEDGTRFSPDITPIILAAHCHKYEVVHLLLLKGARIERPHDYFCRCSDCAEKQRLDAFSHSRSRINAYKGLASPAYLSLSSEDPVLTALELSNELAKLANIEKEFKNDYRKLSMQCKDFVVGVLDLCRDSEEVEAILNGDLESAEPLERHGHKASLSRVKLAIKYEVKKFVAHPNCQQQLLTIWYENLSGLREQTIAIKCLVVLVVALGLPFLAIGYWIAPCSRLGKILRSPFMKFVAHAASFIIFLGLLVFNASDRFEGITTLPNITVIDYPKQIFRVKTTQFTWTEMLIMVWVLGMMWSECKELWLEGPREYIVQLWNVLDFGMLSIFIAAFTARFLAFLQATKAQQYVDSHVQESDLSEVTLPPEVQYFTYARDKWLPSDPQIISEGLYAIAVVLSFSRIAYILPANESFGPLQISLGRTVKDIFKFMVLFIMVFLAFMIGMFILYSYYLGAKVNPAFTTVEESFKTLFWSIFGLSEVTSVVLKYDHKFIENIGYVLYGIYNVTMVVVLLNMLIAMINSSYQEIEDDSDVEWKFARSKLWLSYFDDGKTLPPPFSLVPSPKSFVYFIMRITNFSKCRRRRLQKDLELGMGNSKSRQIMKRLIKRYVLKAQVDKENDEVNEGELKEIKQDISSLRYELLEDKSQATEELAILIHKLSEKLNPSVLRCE
Assay: Whole-cell voltage clamp of DHPG-evoked inward current in Purkinje cells of cerebellar brain slices
Assay type: cell-based
Description: TRPC3c-mediated current in cerebellar Purkinje cells was then assessed. Parasagittal cerebellar brain slices (400 μm) were prepared using standard techniques (Power and Sah, (2007) J. Physiol. 580:835-57). Mice (C129-SvEv strain, 4-8 weeks old) were anaesthetized with pentobarbital and decapitated. The brain was removed and submerged in an ice cold modified artificial cerebral spinal fluid (ACSF) solution containing 119 mM NaCl, 2.5 mM KCl, 3.3 mM MgCl2, 0.5 mM CaCl2, 1.0 mM Na2PO4, 26.2 mM NaHCO3, 11 mM glucose, equilibrated with 95% CO2, 5% 02. Slices were cut with a VT1200 vibratome (Leica, Germany) and were allowed to recover for at least 1 h at room temperature in a standard ACSF solution containing 119 mM NaCl, 2.5 mM KCl, 1.3 mM MgCl2, 2.5 mM CaCl2, 1.0 mM Na2PO4, 26.2 mM NaHCO3, 11 mM glucose, equilibrated with 95% CO2, 5% O2.
For recording, slices were transferred to the stage of a Zeiss Examiner D1 microscope and continuously perfused with ACSF heated to 30° C. Whole-cell patch-clamp recordings were made from the soma of Purkinje neurons identified using infrared differential interference contrast videomicroscopy. Patch pipettes (3-5 MΩ) were filled with an internal solution containing 135 mM Cesium methanesulfonate, 8 mM NaCl, 10 mM HEPES, 2 mM Mg2ATP, 0.3 mM Na3GTP, 0.1 spermine (pH 7.3 with KOH, osmolarity 290-300 mosmol l^−1). Alexa 594 (30 μM; Invitrogen, U.S.A.) was added to the internal solution to visualise the dendritic tree. Whole-cell currents at a holding potential of −70 mV were amplified with an Axopatch 2B amplifier (Molecular Devices, U.S.A.), filtered at 5 kHz and digitized at 20 kHz with a Digidata1440 (Molecular Devices), and controlled using pClamp 10.2 Software (Molecular Devices). Whole-field fluorescence measurements were made with a 40× water immersion objective (NA 1.0; Zeiss, Germany) using a F43 filter block; excitation 545/25 nm; dichroic 570 nm, emission 605/70 nm. Images were acquired with a cooled CCD camera (ProgRes MF-Cool, Jenoptik, Germany) DHPG (50 μM) was applied onto the dendritic field by focal pressure application (in ACSF) through a patch pipette.

peak of the DHPG-evoked current (15 min after genistein 100 μM, before genistein −400±55 pA): −77±50 pA
integrated area of the DHPG-evoked current (net charge) (after genistein 100 μM, before genistein −878±11 pC): −74±105 pC
time over which block of the current was produced (genistein 100 μM bath application): 10 to 15 min
reduction of DHPG-evoked Purkinje cell inward current (genistein 100 μM, DHPG 50 μM, holding −70 mV, n=3): 90±12%
Structure (SMILES): O=c1c(-c2ccc(O)cc2)coc2cc(O)cc(O)c12 [genistein, 4′, 5,7-trihydroxyisoflavone]
